From patent US20250051762A1, “PLATFORM USING DNA-ENCODED SMALL MOLECULE LIBRARIES AND RNA SELECTION TO DESIGN SMALL MOLECULES THAT TARGET RNA” (University of Florida Research Foundation, Incorporated, priority 2021, published 2025) come the findings set out here.

The subject of this assay is MDA-MB-231 cells. As to the kind of experiment: Global proteomics profiling by LC-MS/MS in MDA-MB-231 cells. It is filed as cell-based, human. The protocol: Global proteomics profiling using LC-MS/MS: Treated cell pellets were resuspended in 1×PBS, lysed by sonication, and protein concentration was determined by using a Bradford assay (Bio-Rad). Samples (30 μg) were denatured in 6 M urea in 50 mM NH4HCO3, pH 8, reduced for 30 min with 10 mM TCEP, and alkylated for 30 min in the dark with 25 mM iodoacetamide. Samples were diluted to 2 M urea with 50 mM NH4HCO3, pH 8, and the proteins were digested with trypsin (1 μL of 0.5 μg/μL) in the presence of 1 mM CaCl2) for 12 h at 37° C. The samples were acidified by adding acetic acid to a final concentration of 5% (v/v). After desalting the samples over a self-packed C18 spin column, they were dried and analyzed by LC-MS/MS (see below). The resulting MS data were processed with MaxQuant as described below.
LC-MS/MS analysis: Peptides were dissolved in water containing 0.1% formic acid (FA) and analyzed using an EASY-nLC 1200 nano-UHPLC connected to a Q Exactive HF-X Quadrupole-Orbitrap mass spectrometer (Thermo Scientific). A 50 cm long, 75 μm i.d. chromatography column packed with ReproSil-Pur 120 C18-AQ 2.4 μm beads (Dr. Maisch GmbH) and capped by a 5 μm tip was used. Water with 0.1% FA in water (Buffer A) and 90% acetonitrile (MeCN): 10% water with 0.1% FA (Buffer B) were used as liquid chromatography solvents. A flow rate of 300 nL/min over a 240 min linear gradient (5-35% Buffer B) at 65° C. was used to clute peptides into the mass spectrometer. Data-dependent acquisition (top-20, NCE 28, R=7,500) after full MS scan (R=60,000, m/z 400-1,300) with a dynamic exclusion of 10 seconds was performed. Peptide match to prefer and isotope exclusion were selected and enabled.
MaxQuant analysis: The MaxQuant software (13) (V1.6.1.0) was used to analyzed the MS data and searched against the human proteome (Uniprot) and a common list of contaminants (included in MaxQuant). Peptide search tolerance was set to 20 ppm for the first search and 10 ppm for the main search while 0.02 Da was used for the fragment mass tolerance. The false discovery rate (FDR) for peptides, proteins and sites identification was set to 1%. Peptide length was set to at least 6 amino acids and peptide re-quantification was enabled. Label-free quantification (MaxLFQ) and “match between runs” were activated. Number of peptides per protein was set to ≥2. Searched modifications were methionine oxidation (variable modification) and carbamidomethylation of cysteines (fixed modification).
TargetScan analysis: TargetScanHuman v7.2 was used to predict downstream protein targets of miR-27a-3p (n=1421), miR-23a-3p (n=1342) and miR-24-3p (n=761) containing conserved sites, all proteins with a context score≤0 were included to the analysis per TargetScan recommendation. Approximately 15% of miR-27a-3p targets (220/1421), ˜18% of miR-23a-3p targets (247/1342), and ˜16% of miR-24-3p targets (122/761) were detectable in the global proteomics analysis. […] Targets of miR-23a-3p and miR-24-3p were used as comparison as the two miRNAs are expressed at similar levels as miR-27a-3p in MDA-MB-231 cells and are located in the same cluster. P values between distributions were calculated using a two-tailed Kolmogorov-Smirnov test.

[1] abbreviates: 100 nM, 3,127 detectable proteins, FDR <5%.
[2] abbreviates: treated vs. vehicle, relative to all proteins.

Structures are written as SMILES.

Take `C#CCN(CC(N)=O)C(=O)C[C@H](Cc1c[nH]c2ccccc12)NC(=O)[C@@H]1C[C@H](NC(=O)Cn2c(=O)[nH]c3ccccc3c2=O)CN1` [Compound 9]: under setting [1], the “number of proteins significantly downregulated” value is listed as “five” and the “number of proteins significantly upregulated” value was 15. For the same molecule, under “100 nM, of the 15 upregulated, per TargetScan”, the “upregulated proteins that are putative direct targets of miR-27a” value is given as “Eleven”. For the same molecule, under setting [2], the “cumulative distribution of fold change of miR-23a-3p targets” value is reported as “no significant change”, the “cumulative distribution of fold change of miR-24-3p targets” value was “no significant change” and the “cumulative distribution of fold change of miR-27a-3p targets” value is “significant upregulation”.
